According to patent US8818734B1, “Peptide ligands for sperm DNA fragmentation assay” (priority 2011, dated 2014):

Tests used:
Assay type in all cases: cell-based
human spermatozoa [1] = assay: Induction of single-strand DNA damage with H2O2: DW1 staining of ethanol-fixed slides, SCDt, alkaline comet assay; conditions: 0.03 and 0.3% H2O2, 30 min, p<0.05
Procedure: Five human sperm samples were washed in PBS (220 g, 10 min), diluted to a concentration of 10×10^6 spermatozoa/ml in PBS (Fischer Scientific International, Pittsburgh, Pa., USA) and divided into three aliquots of 200 μl each, allowing a control group to be compared with the treated cells. To induce single-strand DNA damage (Yamamoto, 1969), spermatozoa were incubated with 0.03 and 0.3% H2O2 (Sigma, St Louis, Mo., USA) for 30 min at room temperature.
(§1) Control, H2O2 (0.03% and 0.3%) and Bleomycin (2 and 4 mg/ml)-treated sperm samples were used for this purpose. Ten fields per sample were captured as described above in the Fluorescence microscopy evaluation and image capture section using a fixed exposure time. A total of 300 sperm cells per slide were analysed.
One way-ANOVA and Dunnett's Test for multiple comparisons with a single control were used to detect significant differences in the frequencies of SDF calculated by SCDt and alkaline comet assay between the control and each one of the treatments, 0.03% and 0.3% H2O2.

human spermatozoa [2] = assay: Induction of double-strand DNA damage with Bleomycin: DW1 staining of ethanol-fixed slides, SCDt, neutral comet assay; conditions: 2 and 4 mg/ml Bleomycin, 3 h, 37° C., p<0.05
Procedure: Five human sperm samples were washed in PBS (220 g, 10 min), diluted to a concentration of 10×10^6 spermatozoa/ml in PBS (Fischer Scientific International, Pittsburgh, Pa., USA) and divided into three aliquots of 200 μl each, allowing a control group to be compared with the treated cells. To induce double-strand DNA damage, spermatozoa were incubated with 2 and 4 mg/ml of Bleomycin (Sigma, St Louis, Mo., USA) for 3 h at 37° C.
as §1
A Mann-Whitney U test was used to detect significant differences in the frequencies of SDF calculated by SCDt and neutral comet assay between the control and each one of the treatments, 2 mg/ml and 4 mg/ml of bleomycin.

spermatozoa = assay: Access of TAT-modified DW1 to the cell interior; conditions: DW1 modified to include TAT peptide YGRKKRRQRRRG
Source text: However, it is possible that different TAT configurations or the use of an alternative protein transduction domain might allow penetration into the cell interior. […] It is still possible that the peptide could be used to choose spermatozoa for fertilization using ICSI following removal of membranes using detergent. Previous studies have shown that sperm treated in this way remain fertilizations competent (Kasai et al., 1999). […] Electroporation is known not to inhibit sperm viability and ICSI procedures.

## OO [H2O2, Hydrogen Peroxide]
Human spermatozoa [1]
  frequency of sperm cells with fragmented DNA by SCDt (SCDt-SDF) and alkaline comet assay (ssSDF): significant increase

## Bleomycin
Human spermatozoa [2]
  frequency of sperm cells with fragmented DNA by SCDt (SCDt-SDF) and neutral comet assay (dsSDF): significantly increased

## DW1 (SEQ ID NO:1) to include a TAT peptide: DW1 modified to include a TAT peptide (YGRKKRRQRRRG), a transduction sequence (GSRAHSSHLKSKKGQSTSRHKKYGRKKRRQRRRG; listed as Homo sapiens)
spermatozoa
  access to the cell interior: failed to improve access to the cell interior
